Data on six compounds can be found in PMC5945843, “Direct neurotransmitter activation of voltage-gated potassium channels” (Nature Communications, 2018).

The subject of assay [1] is canonical GABAA receptors. Set-up: method as in PMID 17717222. The note with it: up to 5 mM BHB; cited from earlier work.
Assay [2] has as its target heteromeric KCNQ2/3 channels (Homo sapiens, UniProt O43525+O43526). Put plainly: TEVC in Xenopus oocytes. It is filed as cell-based. The settings on record: for Slope: Ctrl 6.2 ± 0.8; for Normalized tail current V0.5: Ctrl -36.1 ± 1.8; for Non-normalized tail current V0.5: Ctrl -36.4 ± 8.7.
From the text: cRNA transcripts encoding human KCNQ1, KCNQ2, KCNQ3, KCNQ4, KCNQ5, KCNA1, or KCNE1 were generated by in vitro transcription using the T7 polymerase mMessage mMachine kit (Thermo Fisher Scientific), after vector linearization, from complementary DNA (cDNA) sub-cloned into plasmids incorporating Xenopus laevis β-globin 5′ and 3′ untranslated regions flanking the coding region to enhance translation and cRNA stability. cRNA was quantified by spectrophotometry. […] Defolliculated stage V and VI Xenopus laevis oocytes (Ecocyte Bioscience, Austin, TX) were injected with Kv channel α subunit cRNAs (5–10 ng).
Oocytes were placed in a small-volume oocyte bath (Warner) and viewed with a dissection microscope. Chemicals were sourced from Sigma. Bath solution was (in mM): 96 NaCl, 4 KCl, 1 MgCl2, 1 CaCl2, 10 HEPES (pH 7.6). […] Valeric acid was stored as a 5 mM stock in Ringer’s solution at 4 °C and diluted to working concentrations each experimental day. β-hydroxybutyric acid was stored at 4 °C as a 480 mM stock in 100% ethanol and diluted to working concentrations each experimental day. All compounds were introduced to the recording bath via gravity perfusion at a constant flow of 1 ml per min for 3 min prior to recording. Pipettes were of 1–2 MΩ resistance when filled with 3 M KCl. Currents were recorded in response to pulses between −80 mV and +40 mV at 20 mV intervals, or a single pulse to +40 mV, from a holding potential of −80 mV, to yield current-voltage relationships, current magnitude, and for quantifying activation rate. Deactivation was recorded at −80 mV after a single activating pulse to +40 mV, from a holding potential of −80 mV. […] TEVC data analysis was performed with Clampfit (Molecular Devices) and Graphpad Prism software (GraphPad, San Diego, CA, USA); values are stated as mean ± SEM. Normalized tail currents were plotted versus prepulse voltage and fitted with a single Boltzmann function:1 g=(A1-A2)/1+expV1/2-V∕VS+A2, where g is the normalized tail conductance, A1 is the initial value at −∞, A2 is the final value at +∞, V1/2 is the half-maximal voltage of activation, and VS the slope factor. Activation and deactivation kinetics were fitted with single exponential functions.
A further assay concerns KCNQ3*. Set-up: method as in PMID 26333338. The note with it: read-out: EC50 (sensitivity previously reported); cited from earlier work.
The subject of assay [3] is native M-current in PC12 cells. Briefly: Whole-cell patch clamp of NGF-differentiated PC12 cells. Type of assay: cell-based, rat. As for the experimental part:
CHO cells (ATCC) were seeded on poly-L-lysine-treated glass coverslips in 24-well plates and transfected the next day using 0.5 µg each of mouse KCNQ2 and KCNQ3 cDNA in a CMV vector per well in normal media (DMEM with 10% FBS and 1% penicillin/streptomycin). The transfection reagent used was TransIT-LT1 (Mirus Bio LLC, Madison, WI, USA) and cells were patched 48–72 h post transfection. […] Media was replenished every 3 days and cultures were split once a week. […] Cell culture plastic ware and reagents were purchased from VWR and Fisher Scientific unless otherwise stated.
For both CHO cells and PC12 cells, currents were recorded in whole-cell mode at room temperature (22–25 °C) with 3–6 MΩ borosilicate glass electrodes backfilled with solution containing (in mM): 90 K acetate, 20 KCl, 40 HEPES, 3 MgCl2, 1 CaCl2, 3 EGTA-KOH, 2 MgATP; pH 7.2.
The pClamp8 (Molecular Devices) software package was used for data acquisition and Clampfit was used for analysis, along with Graphpad Prism 7.0 (Graphpad).
(The patch-clamp technique gives a direct electrical read-out from membranes.)

Assay [4] has as its system native M-current in mouse DRG neurons. Briefly: Perforated patch-clamp of dorsal root ganglion neurons. It is filed as cell-based. The note with it: XE991 10 µM in combination with GABA 100 µM. As for the experimental part:
Adult male mice were purchased from Jackson Labs and then housed and used according to a protocol approved by the Institutional Animal Care and Use Committee of University of California, Irvine, and consistent with recommendations in the NIH Guide for the Care and Use of Laboratory Animals (8th edition, 2011). […]. DRG neurons were then cultured on poly-L-lysine and laminin-coated plastic coverslips in RPMI 1640 with 10% horse serum and 1% penicillin/streptomycin at 37 °C for 1–4 days before electrophysiological recordings were performed using perforated patch clamp. Amphotericin B (VWR, Radnor, PA) was dissolved in DMSO at 5 mg/ml (stock solution), then diluted to 150–200 µg/ml in intracellular solution and sonicated with a probe sonicator on ice for 5 s, kept at room temperature in the dark, and replaced every hour with a fresh solution from the stock. The working amphotericin solution was backfilled into borosilicate glass electrodes (3–5 MΩ) previously tip-filled to ~0.5 mm with intracellular solution lacking amphotericin B, immediately prior to sealing onto individual neurons. After whole-cell configuration was achieved and capacitance stabilized, whole-cell recordings were performed essentially as described in the prior paragraph, with the following differences: neurons were held at −20 mV to inactivate other channels before the test pulses; offline leak subtraction was performed.

In the next assay the target is KCNQ1 (Homo sapiens, UniProt P51787). Briefly: 3H-GABA radioligand binding in Xenopus oocytes. The settings on record: extracellularly applied, 100 nM.
The next assay deals with KCNQ4 (Homo sapiens, UniProt P56696). Put plainly: 3H-GABA radioligand binding in Xenopus oocytes. The settings on record: extracellularly applied, 100 nM.
Another assay deals with KCNQ5 (Homo sapiens, UniProt Q9NR82). Briefly: 3H-GABA radioligand binding in Xenopus oocytes. The settings on record: extracellularly applied, 100 nM.
A further assay relates to GABA receptors. On the set-up: method as in PMID 25779225. The note with it: cited from earlier work.
Where [5] appears, read: 10 µM XE991 + 100 µM picrotoxin + 10 µM CGP55845, recorded after the GABA condition.

Sequence of heteromeric KCNQ2/3 channels (O43526 whole entry): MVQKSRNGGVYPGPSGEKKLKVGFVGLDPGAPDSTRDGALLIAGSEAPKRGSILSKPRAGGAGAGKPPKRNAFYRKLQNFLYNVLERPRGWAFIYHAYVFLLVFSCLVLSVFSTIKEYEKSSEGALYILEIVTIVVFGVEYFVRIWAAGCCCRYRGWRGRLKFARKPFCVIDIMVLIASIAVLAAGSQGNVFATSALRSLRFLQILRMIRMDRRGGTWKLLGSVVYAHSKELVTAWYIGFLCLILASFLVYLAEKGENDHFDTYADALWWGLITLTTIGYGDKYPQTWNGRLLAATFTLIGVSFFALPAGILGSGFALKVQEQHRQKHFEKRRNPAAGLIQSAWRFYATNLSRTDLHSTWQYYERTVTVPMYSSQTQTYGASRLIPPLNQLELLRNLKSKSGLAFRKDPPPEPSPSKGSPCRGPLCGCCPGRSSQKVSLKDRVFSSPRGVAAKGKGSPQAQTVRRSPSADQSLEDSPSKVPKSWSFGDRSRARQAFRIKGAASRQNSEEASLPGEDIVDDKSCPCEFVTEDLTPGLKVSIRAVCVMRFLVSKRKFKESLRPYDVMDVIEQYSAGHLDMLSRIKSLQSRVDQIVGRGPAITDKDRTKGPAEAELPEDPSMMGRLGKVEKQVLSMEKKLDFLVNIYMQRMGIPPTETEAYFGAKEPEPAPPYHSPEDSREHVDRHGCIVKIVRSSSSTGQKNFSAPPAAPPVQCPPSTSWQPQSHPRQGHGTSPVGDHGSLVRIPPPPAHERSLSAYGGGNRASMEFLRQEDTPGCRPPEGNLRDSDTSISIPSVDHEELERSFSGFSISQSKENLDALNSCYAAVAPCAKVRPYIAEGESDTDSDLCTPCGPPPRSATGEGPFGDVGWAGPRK
Sequence of heteromeric KCNQ2/3 channels (O43525 whole entry): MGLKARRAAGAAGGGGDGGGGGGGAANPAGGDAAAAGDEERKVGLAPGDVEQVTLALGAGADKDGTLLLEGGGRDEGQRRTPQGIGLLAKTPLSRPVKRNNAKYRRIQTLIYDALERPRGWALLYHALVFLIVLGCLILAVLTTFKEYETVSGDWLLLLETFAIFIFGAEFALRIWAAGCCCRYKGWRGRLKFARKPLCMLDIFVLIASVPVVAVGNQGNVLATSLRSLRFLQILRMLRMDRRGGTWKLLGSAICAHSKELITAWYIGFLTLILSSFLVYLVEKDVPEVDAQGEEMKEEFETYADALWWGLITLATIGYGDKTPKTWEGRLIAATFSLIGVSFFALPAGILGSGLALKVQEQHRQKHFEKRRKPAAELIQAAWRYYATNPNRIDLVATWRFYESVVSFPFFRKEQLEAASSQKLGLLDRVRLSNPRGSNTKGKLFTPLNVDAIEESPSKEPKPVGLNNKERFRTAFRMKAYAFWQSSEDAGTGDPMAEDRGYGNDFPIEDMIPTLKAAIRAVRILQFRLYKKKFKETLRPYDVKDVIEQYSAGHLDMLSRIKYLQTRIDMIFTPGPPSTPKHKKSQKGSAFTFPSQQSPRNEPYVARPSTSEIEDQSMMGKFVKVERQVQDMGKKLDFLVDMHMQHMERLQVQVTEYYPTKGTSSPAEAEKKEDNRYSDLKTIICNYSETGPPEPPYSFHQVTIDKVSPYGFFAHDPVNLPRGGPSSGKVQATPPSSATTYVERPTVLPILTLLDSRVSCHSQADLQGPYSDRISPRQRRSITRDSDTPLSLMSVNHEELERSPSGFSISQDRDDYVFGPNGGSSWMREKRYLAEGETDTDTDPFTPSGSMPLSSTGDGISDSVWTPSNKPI

Consider `CC(O)CC(=O)O` (stereo not drawn) [BHB, β-hydroxybutyric acid], for which, in assay [1], the BHB sensitivity result is reported as “BHB-insensitive”. Also, the Slope was determined as 5.9 ± 0.4 mV in assay [2] (1 µM β-Hydrox); 5.9 ± 0.4 mV in [2] (10 µM β-Hydrox); 5.9 ± 0.3 mV in assay [2] (100 µM β-Hydrox); 5.7 ± 0.6 mV in assay [2] (1 mM β-Hydrox); 4.9 ± 0.6 mV in assay [2] (4 mM β-Hydrox). Also, the “Normalized tail current V0.5” value in assay [2] (1 µM β-Hydrox) was -46.1 ± 0.6 mV; in assay [2] (10 µM β-Hydrox), -48.1 ± 0.4 mV; in assay [2] (100 µM β-Hydrox), -50.2 ± 0.3 mV; in [2] (1 mM β-Hydrox), -46.5 ± 0.9 mV; in assay [2] (4 mM β-Hydrox), -44.9 ± 0.8 mV. Also, the “Non-normalized tail current V0.5” value in assay [2] (1 µM β-Hydrox) is given as -43.9 ± 8.2 mV; in assay [2] (10 µM β-Hydrox), -45.5 ± 7.9 mV; in assay [2] (100 µM β-Hydrox), -46.0 ± 7.9 mV; in [2] (1 mM β-Hydrox) it was -46.0 ± 7.4 mV; in assay [2] (4 mM β-Hydrox) it was -44.7 ± 7.1 mV. Further, the EC50 in assay [2] (at −60 mV) was found to be 0.95 ± 0.13 µM.
For the compound `Cc1cc(C)c(NC(=O)C2CC3CCC2C3)c(C)c1` (stereo not drawn) [ML-213], the EC50 in the assay on KCNQ3* is 3.6 µM.
Take `O=C1c2ccccc2C(Cc2ccncc2)(Cc2ccncc2)c2ccccc21` [XE991]: in assay [3] (setting [5]), the “Normalized tail current V0.5” value is recorded as -4.9 ± 4.3 mV and the Slope is 18.4 ± 2.2 mV. For the same compound, the “effect on GABA-dependent shift of tail currents” value in [3] (XE991 10 µM) is given as “removed the GABA-dependent negative-shift”. Further, the “effect on GABA-augmented KCNQ2/3 current” value in assay [2] (XE991 50 µM) is “readily inhibited”. In addition, the “inhibition of deactivating current at −60 mV” value in assay [4] was above 50%.
With `[3H]C(CN)C([3H])C(=O)O` (stereo not drawn) [^3H-GABA], the 3H-GABA binding entry on KCNQ1 is given as “did not”; at KCNQ4, “bound”; on KCNQ5, “bound”.
With `CCOC(=O)Nc1ccc(NCc2ccc(F)cc2)cc1N` [retigabine], the EC50 with KCNQ3* is 11.6 µM. Also, in the assay with GABA receptors, the “action on GABA receptors” value is recorded as “weak activator”.
Regarding picrotoxin, the Slope in assay [3] (100 µM picrotoxin + 10 µM CGP55845, Ctrl (extracellular solution only) 20.3 ± 4.5) was 17.4 ± 3.0 mV. Moreover, the “Normalized tail current V0.5” value in assay [3] (100 µM picrotoxin + 10 µM CGP55845, Ctrl (extracellular solution only) -9.2 ± 4.9) is -7.1 ± 7.6 mV.

For orientation: EC50 means the concentration that produces a half-maximal response.
